The nature of this data set: Solubility of etioporphyrin-I in chloroform. The data set is classed as physicochemical. Particulars: solvent chloroform. The protocol:
In addition to the problems associated with the isolation of the dipyrromethenes, another difficulty in the syntheses of etioporphyrin I is the work up and purification procedures for isolating etioporphyrin-I. The coupling reaction of the dipyrromethenes (see Scheme 3, (5) and (6)) is carried out in refluxing formic acid. Generally, this gives a tarry, black reaction mixture that yield about 20-35% of etioporphyrin-I after extensive chromatography. On small scales (1-40 g of dipyrromethenes), dissolution of the tarry reaction mixture in chloroform, followed by neutralization and chromatography on large amounts of silica affords the desired porphyrin. […] During this process it is not uncommon for etioporphyrin-I to precipitate from solution onto the silica gel, making column chromatography (even on small scale (10 g)) difficult. Clearly, such a process is not feasible economically on large scale.

Here are results for one substance from patent publication US20230167124A1, “Methods for the Production of Nickel (II) Etioporphyrin-I” (Adgero Biopharmaceuticals Holdings, Inc., priority 2020, published 2023).

Consider etioporphyrin-I, for which the solubility in chloroform is less than 10 mg/mL.
